Test results from ChEMBL document CHEMBL5518181, “Studies of antibacterial activity (in vitro and in vivo) and mode of action for des-acyl tridecaptins (DATs)” (Eur J Med Chem, 2024).
Converted amounts (≈) assume the structure as drawn.

Legend:
[1] = test system: Escherichia coli; assay: Antibacterial activity against wild-type Escherichia coli ATCC 25922 assessed as inhibition of bacterial growth incubated for 18 hrs; format: functional; conditions: read-out: MIC100
[2] = test system: Klebsiella pneumoniae; assay: Antibacterial activity against wild-type Klebsiella pneumoniae ATCC 13883 assessed as inhibition of bacterial growth incubated for 18 hrs; format: functional; conditions: read-out: MIC100
[3] = Hemolytic activity in human red blood cells at 400 ug/ml incubated for 45 mins by spectrophotometric analysis relative to control; format: toxicity, cell-based, Erythrocyte; conditions: red blood cells (erythrocytes), at 400 µg/mL, read-out: Activity
[4] = Cytotoxicity against human HepG2 cells incubated for 40 hrs by celltiter-glo luminescent cell viability assay; format: toxicity, cell-based
[5] = test system: Escherichia coli; assay: Antibacterial activity against wild-type Escherichia coli ATCC 25922 assessed as inhibition of bacterial growth incubated for 18 hrs in presence of 50% heat inactivated human serum; format: functional; conditions: read-out: MIC100
[6] = test system: Escherichia coli; assay: Antibacterial activity against Escherichia coli ATCC 25922 harboring hldE knock-out assessed as inhibition of bacterial growth incubated for 18 hrs; format: functional; conditions: read-out: MIC100
[7] = test system: Escherichia coli; assay: Antibacterial activity against Escherichia coli ATCC 25922 harboring tolC knock-out assessed as inhibition of bacterial growth incubated for 18 hrs; format: functional; conditions: read-out: MIC100
[8] = test system: Klebsiella pneumoniae; assay: Antibacterial activity against wild-type Klebsiella pneumoniae ATCC 13883 assessed as inhibition of bacterial growth incubated for 18 hrs in presence of 50% heat inactivated human serum; format: functional; conditions: read-out: MIC100
[9] = test system: Acinetobacter baumannii; assay: Antibacterial activity against wild-type Acinetobacter baumannii ATCC 19606 assessed as inhibition of bacterial growth incubated for 20 hrs; format: functional; conditions: read-out: MIC100
[10] = test system: Pseudomonas aeruginosa; assay: Antibacterial activity against wild-type Pseudomonas aeruginosa PAO1 assessed as inhibition of bacterial growth incubated for 24 hrs; format: functional; conditions: read-out: MIC100
[11] = test system: Staphylococcus aureus; assay: Antibacterial activity against […] assessed as inhibition of bacterial growth incubated for 18 hrs; format: functional; conditions: ATCC 29213, read-out: MIC100
[12] = Hydrophobicity of compound assessed as %MeCN at peak elution by RP-HPLC analysis; format: physicochemical

SMILES | MIC [1] | MIC [2] | hemolysis at 0.75 h, 400 ug/ml [3] | IC50 at 40 h [4] | MIC [5] | MIC [6] | MIC [7] | MIC [8] | MIC [9] | MIC [10] | MIC [11] | MeCN percentage at peak elution [12]
CC(C)[C@H](NC(=O)[C@H](CCC(=O)O)NC(=O)[C@H](Cc1ccccc1)NC(=O)[C@@H](CCN)NC(=O)[C@H](CCN)NC(=O)[C@H](CO)NC(=O)[C@@H](Cc1c[nH]c2ccccc12)NC(=O)[C@@H](CO)NC(=O)CNC(=O)[C@@H](CCN)NC(=O)[C@H](NC(=O)[C@H](C)N)C(C)C)C(=O)N[C@H](C)C(=O)N[C@@H](C)C(=O)O | 64 µg/mL (≈ 45 µM) | 32 µg/mL (≈ 22.5 µM) | 5% | 47 µg/mL (≈ 33 µM) | 32 µg/mL | 8 µg/mL (≈ 5.62 µM) | 32 µg/mL (≈ 22.5 µM) | 16 µg/mL | > 64 µg/mL | 64 µg/mL (≈ 45 µM) | > 64 µg/mL | 37.7%
CC[C@@H](C)[C@@H](NC(=O)[C@@H](NC(=O)[C@H](CCC(=O)O)NC(=O)[C@H](Cc1ccccc1)NC(=O)[C@@H](CCN)NC(=O)[C@H](CCN)NC(=O)[C@H](CO)NC(=O)[C@@H](Cc1c[nH]c2ccccc12)NC(=O)[C@@H](CO)NC(=O)CNC(=O)[C@@H](CCN)NC(=O)[C@H](N)C(C)C)C(C)C)C(=O)N[C@@H](C)C(=O)O | 64 µg/mL (≈ 45.9 µM) | 64 µg/mL (≈ 45.9 µM) | 5.5% | 91 µg/mL (≈ 65.3 µM) | 8 µg/mL | 8 µg/mL (≈ 5.74 µM) | 4 µg/mL (≈ 2.87 µM) | 8 µg/mL | 64 µg/mL (≈ 45.9 µM) | > 64 µg/mL | > 64 µg/mL | 39.5%
CC[C@H](C)[C@@H](NC(=O)[C@H](CC1CCCCC1)NC(=O)[C@H](CCC(=O)O)NC(=O)[C@H](Cc1ccccc1)NC(=O)[C@@H](CCN)NC(=O)[C@H](CCN)NC(=O)[C@H](CO)NC(=O)[C@@H](Cc1c[nH]c2ccccc12)NC(=O)[C@@H](CO)NC(=O)CNC(=O)[C@@H](CCN)NC(=O)[C@H](N)C(C)C)C(=O)N[C@@H](C)C(=O)O | 8 µg/mL (≈ 5.52 µM) | 8 µg/mL (≈ 5.52 µM) | 59.1% | 46 µg/mL (≈ 31.8 µM) | 16 µg/mL | 2 µg/mL (≈ 1.38 µM) | < 0.125 µg/mL | 4 µg/mL | 64 µg/mL (≈ 44.2 µM) | > 64 µg/mL | > 64 µg/mL | 43.9%
CC[C@H](C)[C@@H](NC(=O)[C@@H](NC(=O)[C@H](C)NC(=O)[C@H](Cc1ccccc1)NC(=O)[C@@H](CCN)NC(=O)[C@H](CCN)NC(=O)[C@H](CO)NC(=O)[C@@H](Cc1c[nH]c2ccccc12)NC(=O)[C@@H](CO)NC(=O)CNC(=O)[C@@H](CCN)NC(=O)[C@H](NC(=O)[C@H](C)N)C(C)C)C(C)C)C(=O)N[C@@H](C)C(=O)O | 8 µg/mL (≈ 5.68 µM) | 16 µg/mL (≈ 11.4 µM) | 0.3% | 67 µg/mL (≈ 47.6 µM) | 4 µg/mL | 2 µg/mL (≈ 1.42 µM) | 8 µg/mL (≈ 5.68 µM) | 32 µg/mL | > 64 µg/mL | 64 µg/mL (≈ 45.5 µM) | > 64 µg/mL | 40.1%
CC[C@H](C)[C@@H](NC(=O)[C@@H](NC(=O)[C@H](CCC(=O)O)NC(=O)[C@H](Cc1ccccc1)NC(=O)[C@@H](CCN)NC(=O)[C@H](CCN)NC(=O)[C@H](CO)NC(=O)[C@@H](Cc1c[nH]c2ccccc12)NC(=O)[C@@H](CO)NC(=O)CNC(=O)[C@@H](CCN)NC(=O)[C@H](NC(=O)[C@@H](C)N)C(C)C)C(C)C)C(=O)N[C@@H](C)C(=O)O | 4 µg/mL (≈ 2.73 µM) | 2 µg/mL (≈ 1.36 µM) | 2.3% | 98 µg/mL (≈ 66.9 µM) | 4 µg/mL | 2 µg/mL (≈ 1.36 µM) | 4 µg/mL (≈ 2.73 µM) | 4 µg/mL | > 64 µg/mL | 32 µg/mL (≈ 21.8 µM) | > 64 µg/mL | 39.6%
CC[C@H](C)[C@@H](NC(=O)[C@@H](NC(=O)[C@H](CCC(=O)O)NC(=O)[C@H](Cc1ccc(-c2ccccc2)cc1)NC(=O)[C@@H](CCN)NC(=O)[C@H](CCN)NC(=O)[C@H](CO)NC(=O)[C@@H](Cc1c[nH]c2ccccc12)NC(=O)[C@@H](CO)NC(=O)CNC(=O)[C@@H](CCN)NC(=O)[C@H](N)C(C)C)C(C)C)C(=O)N[C@@H](C)C(=O)O | 8 µg/mL (≈ 5.44 µM) | 4 µg/mL (≈ 2.72 µM) | 24.5% | 23 µg/mL (≈ 15.6 µM) |  | 2 µg/mL (≈ 1.36 µM) | < 0.125 µg/mL | 4 µg/mL | > 64 µg/mL | 64 µg/mL (≈ 43.5 µM) | > 64 µg/mL | 
CC[C@H](C)[C@@H](NC(=O)[C@@H](NC(=O)[C@H](CCC(=O)O)NC(=O)[C@H](Cc1ccccc1)NC(=O)[C@@H](C)NC(=O)[C@H](CCN)NC(=O)[C@H](CO)NC(=O)[C@@H](Cc1c[nH]c2ccccc12)NC(=O)[C@@H](CO)NC(=O)CNC(=O)[C@@H](CCN)NC(=O)[C@H](NC(=O)[C@H](C)N)C(C)C)C(C)C)C(=O)N[C@@H](C)C(=O)O | 16 µg/mL (≈ 11.1 µM) | 16 µg/mL (≈ 11.1 µM) | 4.5% | 35 µg/mL (≈ 24.4 µM) | 8 µg/mL | 8 µg/mL (≈ 5.57 µM) | 8 µg/mL (≈ 5.57 µM) | 16 µg/mL | 64 µg/mL (≈ 44.5 µM) | > 64 µg/mL | > 64 µg/mL | 45.9%
CC[C@H](C)[C@@H](NC(=O)[C@@H](NC(=O)[C@H](CCC(=O)O)NC(=O)[C@H](Cc1ccccc1)NC(=O)[C@@H](CCN)NC(=O)[C@H](CCN)NC(=O)[C@H](CO)NC(=O)[C@@H](Cc1c[nH]c2ccccc12)NC(=O)[C@@H](CO)NC(=O)[C@H](CC(=O)O)NC(=O)[C@@H](CCN)NC(=O)[C@H](N)C(C)C)C(C)C)C(=O)N[C@@H](C)C(=O)O | > 64 µg/mL | > 64 µg/mL | 0% | 13 µg/mL (≈ 8.95 µM) | 64 µg/mL |  |  | > 64 µg/mL | > 64 µg/mL | 64 µg/mL (≈ 44.1 µM) | > 64 µg/mL | 37.8%
CC[C@H](C)[C@@H](NC(=O)[C@@H](NC(=O)[C@H](CCC(=O)O)NC(=O)[C@H](Cc1ccccc1)NC(=O)[C@@H](CCN)NC(=O)[C@H](CCN)NC(=O)[C@H](CO)NC(=O)[C@@H](Cc1c[nH]c2ccccc12)NC(=O)[C@@H](CO)NC(=O)[C@H](CCN)NC(=O)[C@@H](CCN)NC(=O)[C@H](N)C(C)C)C(C)C)C(=O)N[C@@H](C)C(=O)O | 32 µg/mL (≈ 22.3 µM) | 64 µg/mL (≈ 44.5 µM) | 0.3% | > 170 µg/mL |  |  |  |  |  |  |  | 
CC(C)[C@H](NC(=O)[C@H](CCC(=O)O)NC(=O)[C@H](Cc1ccccc1)NC(=O)[C@@H](CCN)NC(=O)[C@H](CCN)NC(=O)[C@H](CO)NC(=O)[C@@H](Cc1c[nH]c2ccccc12)NC(=O)[C@@H](CO)NC(=O)CNC(=O)[C@@H](CCN)NC(=O)[C@H](N)C(C)C)C(=O)N[C@H](C)C(=O)N[C@@H](C)C(=O)O | > 64 µg/mL | 64 µg/mL (≈ 47.3 µM) | 4.3% | > 170 µg/mL |  |  |  |  |  |  |  | 
CC[C@H](C)[C@@H](NC(=O)[C@@H](NC(=O)[C@H](CCC(=O)O)NC(=O)[C@H](Cc1ccccc1)NC(=O)[C@@H](CCN)NC(=O)[C@H](CCN)NC(=O)[C@H](C)NC(=O)[C@@H](Cc1c[nH]c2ccccc12)NC(=O)[C@@H](CO)NC(=O)CNC(=O)[C@@H](CCN)NC(=O)[C@H](N)C(C)C)C(C)C)C(=O)N[C@@H](C)C(=O)O | > 64 µg/mL | > 64 µg/mL | 0% | > 170 µg/mL |  |  |  |  |  |  |  | 
CC[C@H](C)[C@@H](NC(=O)[C@@H](NC(=O)[C@H](CCC(=O)O)NC(=O)[C@H](Cc1ccccc1)NC(=O)[C@@H](CCN)NC(=O)[C@H](CCN)NC(=O)[C@H](CO)NC(=O)[C@@H](Cc1c[nH]c2ccccc12)NC(=O)[C@@H](CO)NC(=O)CNC(=O)[C@@H](CCN)NC(=O)[C@H](NC(=O)[C@@H](N)CC(=O)O)C(C)C)C(C)C)C(=O)N[C@@H](C)C(=O)O | > 64 µg/mL | > 64 µg/mL | 0% | > 170 µg/mL |  |  |  |  |  |  |  | 
CC[C@H](C)[C@@H](NC(=O)[C@@H](NC(=O)[C@H](CCC(=O)O)NC(=O)[C@H](Cc1ccccc1)NC(=O)[C@@H](CCN)NC(=O)[C@H](CCN)NC(=O)[C@H](C)NC(=O)[C@@H](Cc1c[nH]c2ccccc12)NC(=O)[C@@H](CO)NC(=O)CNC(=O)[C@@H](CCN)NC(=O)[C@H](NC(=O)[C@H](C)N)C(C)C)C(C)C)C(=O)N[C@@H](C)C(=O)O | 4 µg/mL (≈ 2.76 µM) | 8 µg/mL (≈ 5.52 µM) | 0% | > 170 µg/mL |  |  |  |  |  |  |  | 
